Where no end group is shown, it is not given here.
Columns and labels:
[1] = tested on: Prostate cancer tumor cells; assay: MTT proliferation inhibition, prostate cancer cells; assay type: cell-based, human; parameters: concentration or dose not given beside the values; conditions: 48 h
Experimental: (§1) The activity of mPEG-HM-1 to inhibit the growth of various tumor cells was examined by MTT assay. The tumor cells were cultured to a concentration of 90% or more in a 37° C., 5% CO2 incubator and collected by trypsinization. The cells were resuspended in the culture medium and counted under a microscope to adjust the cell concentration to 2×10^4 cells/mL, the cell suspension was inoculated into a 96-well plate at 100 μL/well and incubated overnight at 37° C. in a 5% CO2 incubator. mPEG-HM-1 was diluted with the culture solution to each predetermined concentration. Docetaxel is diluted to the final concentration with the culture medium. After the cells were fully attached, each dilution was added to a 96-well plate (100 μL/well). The mPEG-HM-1 dilution was added as a drug-administered group, and docetaxel was added as a positive control group, and a culture solution without any drug was used as a negative control group. Incubate for 48 h at 37° C. in a 5% CO2 incubator. 5 mg/mL of MTT was added to a 96-well plate at 20 μL per well, and incubation was continued for 4 hours. The medium was aspirated, dissolved in 150 μL of DMSO per well, and gently mixed by shaking for 10 min. The absorbance was measured at a measurement wavelength of 570 nm and a reference wavelength of 630 nm using a microplate reader, and the rate of growth inhibition (proliferation inhibition, PI) was calculated. The formula is as follows: PI (%)=1−administration group/negative group
(§2) The test was repeated 3 times independently, and the results obtained by the test were expressed as mean±SD, and the test results are shown in Table 15 to Table 18.

[2] = tested on: Esophageal cancer tumor cells; assay: MTT proliferation inhibition, esophageal cancer cells; assay type: cell-based, human; parameters: concentration or dose not given beside the values; conditions: 48 h
Experimental: as §1, §2

[3] = tested on: Gastric cancer tumor cells; assay: MTT proliferation inhibition, gastric cancer cells; assay type: cell-based, human; parameters: concentration or dose not given beside the values; conditions: 48 h
Experimental: as §1, §2

[4] = tested on: Colorectal cancer tumor cells; assay: MTT proliferation inhibition, colorectal cancer cells; assay type: cell-based, human; parameters: concentration or dose not given beside the values; conditions: 48 h
Experimental: as §1, §2

[5] = tested on: Melanoma tumor cells; assay: MTT proliferation inhibition, melanoma cells; assay type: cell-based, human; parameters: concentration or dose not given beside the values; conditions: 48 h
Experimental: as §1, §2

[6] = tested on: Uterine cancer tumor cells; assay: MTT proliferation inhibition, uterine cancer cells; assay type: cell-based, human; parameters: concentration or dose not given beside the values; conditions: 48 h
Experimental: as §1, §2

[7] = tested on: carrageenan-induced toe swelling in SD rats; assay: Carrageenan-induced acute toe swelling in rats; assay type: in vivo, rat; parameters: Swelling: unit not given here
Experimental: SD rats were divided into blank model group, dexamethasone-positive group (5 mg/kg) and mPEG-HM-1 test group. The drug was administered once a day, and the model group was given the same volume of normal saline for 3 days and fed normally. At the first hour after the last administration, 0.1 mL of 1% carrageenan was injected subcutaneously into the right hind paw of the rats to induce inflammation. The volume of the foot was measured at 1 h, 3 h, 5 h, and 7 h after inflammation. The degree of swelling of the foot was calculated according to the following formula: the degree of swelling of the foot (mL)=the volume of the foot after inflammation−the volume before inflammation. Record the number of milliliters of spilled liquid (method: use the ballpoint pen to circle as the measurement mark at the protruding point of the right joint, and then put the right hind foot of each mouse into the volume measuring device, so that the hind limb is exposed outside the cylinder, and the depth of the immersion was determined by coinciding the circle with the liquid surface. After the foot enters the liquid, the liquid level rises, and the volume of the overflow liquid is the volume of the right hind foot of the rat, and the normal volume of the right hind foot of each mouse is sequentially determined).

[8] = tested on: mouse spleen lymphocytes; assay: ConA-stimulated mouse spleen lymphocyte proliferation (MTT); assay type: cell-based; conditions: ConA 5 μg/mL, 48 h
Experimental: Tris-NH4Cl was used to break the red blood cells, and the cells were allowed to stand in an ice water bath for 4 min, centrifuged (1000 rpm×5 min), the supernatant was discarded, and the cells were washed twice with sterile PBS. Finally, cells were suspended in RPMI 1640 medium (5 mL) supplemented with 10% calf serum, counted, adjusted to a cell concentration of 5×10^6/mL, and cultured in a 96-well culture plate The test group consisted of blank control group, concanavalin A (ConA) group, dexamethasone (Dex) group (0.02 mg/mL) and mPEG-HM-1 group. […] The cells were cultured in a 37° C. cell culture chamber for 48 h. After the completion of the culture, 20 μL of MTT was added to each well, and the culture was continued for 4 h. Finally, all the solutions in each well were discarded, 100 μL of DMSO was added to each well, and the mixture was shaken and detected by a microplate reader OD value at 570 nm, 5 parallels per hole.

[9] = tested on: Head and neck cancer tumor cells; assay: MTT proliferation inhibition, head and neck cancer cells; assay type: cell-based, human; parameters: concentration or dose not given beside the values; conditions: 48 h
Experimental: as §1, §2

[10] = tested on: Ovarian cancer tumor cells; assay: MTT proliferation inhibition, ovarian cancer cells; assay type: cell-based, human; parameters: concentration or dose not given beside the values; conditions: 48 h
Experimental: as §1, §2

[11] = 40 mg/kg once a day for 3 days, 1 h after carrageenan
[12] = 40 mg/kg once a day for 3 days, 3 h after carrageenan
[13] = 40 mg/kg once a day for 3 days, 5 h after carrageenan
[14] = 40 mg/kg once a day for 3 days, 7 h after carrageenan
[15] = 20 mg/kg once a day for 3 days, 1 h after carrageenan
[16] = 20 mg/kg once a day for 3 days, 3 h after carrageenan
[17] = 20 mg/kg once a day for 3 days, 5 h after carrageenan
[18] = 20 mg/kg once a day for 3 days, 7 h after carrageenan

Row | Substance | rate of growth inhibition [1] | rate of growth inhibition [2] | rate of growth inhibition [3] | rate of growth inhibition [4] | rate of growth inhibition [5] | rate of growth inhibition [6] | Swelling [7, 11] | Swelling [7, 12] | Swelling [7, 13] | Swelling [7, 14] | A570 nm/A630 nm ([8]; 20 μg/mL) | Inhibition Rate of spleen lymphocyte proliferation ([8]; 20 μg/mL) | A570 nm/A630 nm ([8]; 40 μg/mL) | Inhibition Rate of spleen lymphocyte proliferation ([8]; 40 μg/mL) | A570 nm/A630 nm ([8]; 80 μg/mL) | Inhibition Rate of spleen lymphocyte proliferation ([8]; 80 μg/mL) | rate of growth inhibition [9] | rate of growth inhibition [10] | A570 nm/A630 nm ([8]; 10 μg/mL) | Inhibition Rate of spleen lymphocyte proliferation ([8]; 10 μg/mL) | other results
1 | mPEG-SC20k-Arg-Gly-Ala-Asp-Arg-Ala-Gly-Gly-Gly-Gly-Arg-Gly-Asp ({mPEG‑SC 20 kDa}-RGADRAGGGGRGD) [mPEG-SC20k-HM-1] | 49.35 ± 10.04% | 55.51 ± 16.22% | 66.14 ± 20.08% | 66.19 ± 20.58% | 72.14 ± 20.69% | 76.93 ± 23.14% | 0.28 ± 0.14 | 0.35 ± 0.17 | 0.42 ± 0.15 | 0.37 ± 0.16 | 0.6213 ± 0.0996 | 9.91% | 0.5444 ± 0.1120 | 21.06% | 0.4741 ± 0.1270 | 31.25% | 49.26 ± 10.32% | 70.94 ± 20.65% |  |  | Swelling ([7]; 80 mg/kg once a day for 3 days, 1 h after carrageenan): 0.26 ± 0.10; Swelling ([7]; 80 mg/kg once a day for 3 days, 3 h after carrageenan): 0.33 ± 0.12; Swelling ([7]; 80 mg/kg once a day for 3 days, 5 h after carrageenan): 0.40 ± 0.13; Swelling ([7]; 80 mg/kg once a day for 3 days, 7 h after carrageenan): 0.32 ± 0.17; inhibition of carrageenan-induced toe swelling (in words) ([7]; rats, 80 mg/kg, once a day for 3 days): most effective
2 | mPEG-SC10k-Arg-Gly-Ala-Asp-Arg-Ala-Gly-Gly-Gly-Gly-Arg-Gly-Asp ({mPEG‑SC 10 kDa}-RGADRAGGGGRGD) [mPEG-SC10k-HM-1] | 45.39 ± 12.63% | 52.18 ± 10.25% | 56.22 ± 16.19% | 61.35 ± 16.88% | 70.62 ± 20.17% | 65.29 ± 19.06% | 0.22 ± 0.09 | 0.32 ± 0.19 | 0.37 ± 0.12 | 0.34 ± 0.13 | 0.5488 ± 0.1052 | 20.42% | 0.4788 ± 0.1282 | 30.57% |  |  | 45.61 ± 11.12% | 65.89 ± 23.37% | 0.6234 ± 0.0976 | 9.60% | Swelling [7, 15]: 0.25 ± 0.11; Swelling [7, 16]: 0.38 ± 0.15; Swelling [7, 17]: 0.43 ± 0.17; Swelling [7, 18]: 0.31 ± 0.11
3 | mPEG-SC5k-Arg-Gly-Ala-Asp-Arg-Ala-Gly-Gly-Gly-Gly-Arg-Gly-Asp ({mPEG‑SC 5 kDa}-RGADRAGGGGRGD) [mPEG-SC5k-HM-1] | 38.37 ± 15.61% | 44.38 ± 10.72% | 52.12 ± 13.22% | 55.35 ± 12.82% | 61.27 ± 18.13% | 60.25 ± 16.09% |  |  |  |  | 0.4954 ± 0.1219 | 28.16% |  |  |  |  | 40.27 ± 11.36% | 60.81 ± 20.27% | 0.5480 ± 0.1081 | 20.54% | Swelling ([7]; 10 mg/kg once a day for 3 days, 1 h after carrageenan): 0.24 ± 0.12; Swelling ([7]; 10 mg/kg once a day for 3 days, 3 h after carrageenan): 0.37 ± 0.14; Swelling ([7]; 10 mg/kg once a day for 3 days, 5 h after carrageenan): 0.42 ± 0.16; Swelling ([7]; 10 mg/kg once a day for 3 days, 7 h after carrageenan): 0.32 ± 0.13; Swelling [7, 15]: 0.23 ± 0.10; Swelling [7, 16]: 0.33 ± 0.20; Swelling [7, 17]: 0.38 ± 0.13; Swelling [7, 18]: 0.34 ± 0.15; A570 nm/A630 nm ([8]; 5 μg/mL): 0.6253 ± 0.0947; Inhibition Rate of spleen lymphocyte proliferation ([8]; 5 μg/mL): 9.32%
4 | mPEG-bALD40k-Arg-Gly-Ala-Asp-Arg-Ala-Gly-Gly-Gly-Gly-Arg-Gly-Asp ({mPEG‑bALD 40 kDa}-RGADRAGGGGRGD) [mPEG-bALD40k-HM-1] | 40.82 ± 11.75% | 57.19 ± 12.07% | 68.65 ± 16.93% | 66.90 ± 16.27% | 73.10 ± 20.55% | 70.51 ± 20.22% |  |  |  |  |  |  | 0.6191 ± 0.0986 | 10.77% | 0.5089 ± 0.1230 | 26.65% | 40.09 ± 12.02% | 72.66 ± 19.03% |  |  | A570 nm/A630 nm ([8]; 160 μg/mL): 0.4848 ± 0.1146; Inhibition Rate of spleen lymphocyte proliferation ([8]; 160 μg/mL): 30.12%
5 | mPEG-bALD5k-Arg-Gly-Ala-Asp-Arg-Ala-Gly-Gly-Gly-Gly-Arg-Gly-Asp ({mPEG‑bALD 5 kDa}-RGADRAGGGGRGD) [mPEG-bALD5k-HM-1] | 39.27 ± 12.50% | 45.03 ± 11.46% | 56.87 ± 14.41% | 59.35 ± 12.64% | 65.62 ± 20.35% | 65.46 ± 18.52% |  |  |  |  | 0.4957 ± 0.1286 | 28.56% |  |  |  |  | 39.92 ± 11.33% | 66.76 ± 18.59% | 0.5645 ± 0.1114 | 18.64% | A570 nm/A630 nm ([8]; 5 μg/mL): 0.6257 ± 0.1022; Inhibition Rate of spleen lymphocyte proliferation ([8]; 5 μg/mL): 9.82%
